Patent publication US5827720A, “α-glucosidase, and a process for producing the same” (priority 1995, dated 1998)

Each compound was assayed on α-glucosidase (the present enzyme) from Bacillus sp. KS-108a (FERM BP-5337) (assay: Km value by Lineweaver-Burk plotting). Details: pH 7.0, 37° C., read-out: Km (PNPG as substrate).
Type: biochemical
Protocol: The measurement of the titer of the present enzyme was carried out in the following manner. The amount of the enzyme causing 1 μ mol paranitrophenol per minute to be released from PNPG was assumed as 1 U of the enzyme. (Preparation of a substrate solution, a buffer, a reaction terminating solution, and an enzyme diluent)
(§1) First, 0.25 ml of Solution 1 and 0.5 ml of Solution 2 were mixed and pre-incubated at 37° C. for 5 minutes, and then the solution was mixed with 0.25 ml enzyme solution (about 0.005 to 0.03 U/ml) and reacted accurately for 15 minutes at 37° C.
(§2) Then, the reaction was stopped by adding 1 ml of Solution 3 to the reaction solution and the paranitrophenol thus formed was colored. This sample was measured for absorbance at 400 nm in a spectrophotometer (U-2000A, Hitachi Ltd.).
Compound `O=[N+]([O-])c1ccc(O[C@H]2O[C@H](CO)[C@@H](O)[C@H](O)[C@H]2O)cc1` [PNPG, paranitrophenyl-α-D-glucopyranoside] has a Km of 55 µM.

Each compound was assayed on α-glucosidase (the present enzyme) from Bacillus sp. KS-108a (FERM BP-5337) (assay: not given). Details: 0.01 ml of 22 mM inhibitor added to 0.1 ml enzyme in 100 mM HEPES-NaOH pH 7.0 with 0.2% BSA, 25° C., 1 hour; then diluted 100-fold, activity on PNPG; control = 100.
Type: biochemical
Protocol: as §1, §2
The effect of treatment with various inhibitors was evaluated in the following manner.
0.1 ml of 0.0667 mg/ml of the present enzyme in 100 mM HEPES-NaOH buffer, pH 7.0 containing 0.2% BSA was added to 0.01 ml of 22 mM inhibitor (1.1% in the case of a surfactant as inhibitor) and incubated at 25° C. for 1 hour. Then, the sample was diluted 100-fold with 10 mM potassium phosphate buffer (pH 7.0) containing 0.2% BSA, and the remaining activity was determined in the same manner as above in titer measurement.
In the case of `O[C@H](CS)[C@H](O)CS` (racemic) [dithiothreitol], the “remaining activity (%)” value was 105.4%. In the case of `OCCS` [2-mercaptoethanol], the “remaining activity (%)” value was 99.6%. In the case of `O=C(O)c1ccccc1[N+](=O)[O-]` [2-nitrobenzoic acid], the “remaining activity (%)” value was 102.7%. With `CCN1C(=O)C=CC1=O` [N-ethylmaleimide] the “remaining activity (%)” value was 107.5%. With `O=C(O)c1cc[c]([Hg][Cl])cc1` [PCMB, p-chloromercuribenzoic acid] the “remaining activity (%)” value was 97.7%. With `c1cnc2c(c1)ccc1cccnc12` [o-phenanthroline] the “remaining activity (%)” value was 99.4%. For `[N-]=[N+]=[N-]` [sodium azide], the “remaining activity (%)” value was 105.0%.

Same assay, conditions: 22 mM inhibitor stock, 25° C., 1 hour
`CCN1C(=O)C=CC1=O` [N-ethylmaleimide] was tested, and the “effect of treatment with inhibitor on the enzyme (in words)” value was “not affected”. In the case of `O=C(O)c1cc[c]([Hg][Cl])cc1` [PCMB, p-chloromercuribenzoic acid], the “effect of treatment with inhibitor on the enzyme (in words)” value was “not affected”.

Same assay, conditions: pH 7
In the case of `O=C(O)CN(CCN(CC(=O)O)CC(=O)O)CC(=O)O` [EDTA-2Na], the “remaining activity (%)” value was 106.4%. In the case of `N[C@@H](CCC(=O)N[C@@H](CS)C(=O)NCC(=O)O)C(=O)O` [glutathione], the “remaining activity (%)” value was 102.5%. With `O=C(O)CI` [monoiodoacetic acid] the “remaining activity (%)” value was 98.5%.
